In ChEMBL document CHEMBL1201862, “PubChem BioAssay data set” (2004):
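The compound was tested at five concentrations on cells cultured in 96-well plates, with a 48-hour exposure period. Abbreviation: GI50, concentration required for 50% inhibition of growth.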 Calls of active or inactive are those of the source. Rule as the data show it: active = GI50 up to about 1.1 µM and inactive = higher.

What was measured:
Assay in all cases: NCI-60 cell line screen, 48 h
[1] = tested on: 786-0
[2] = tested on: A498
[3] = tested on: A549
[4] = tested on: ACHN
[5] = tested on: BT-549
[6] = tested on: CAKI-1
[7] = tested on: CCRF-CEM
[8] = tested on: COLO 205
[9] = tested on: DU-145
[10] = tested on: EKVX
[11] = tested on: HCC 2998
[12] = tested on: HCT-116
[13] = tested on: HCT-15
[14] = tested on: HL-60
[15] = tested on: HOP-62
[16] = tested on: HOP-92
[17] = tested on: HT-29
[18] = tested on: Hs-578T
[19] = tested on: IGROV-1
[20] = tested on: K562
[21] = tested on: KM12
[22] = tested on: LOX IMVI
[23] = tested on: M14
[24] = tested on: MCF7
[25] = tested on: MDA-MB-231
[26] = tested on: MDA-N
[27] = tested on: NCI-H226
[28] = tested on: NCI-H23
[29] = tested on: NCI-H460
[30] = tested on: NCI-H522
[31] = tested on: NCI/ADR-RES
[32] = tested on: OVCAR-3
[33] = tested on: OVCAR-4
[34] = tested on: OVCAR-5
[35] = tested on: OVCAR-8
[36] = tested on: PC-3
[37] = tested on: RPMI-8226
[38] = tested on: SF-268
[39] = tested on: SF-295
[40] = tested on: SF-539
[41] = tested on: SK-MEL-2
[42] = tested on: SK-MEL-5
[43] = tested on: SK-OV-3
[44] = tested on: SN12C
[45] = tested on: SNB-19
[46] = tested on: SNB-75
[47] = tested on: SR
[48] = tested on: T47D
[49] = tested on: TK-10
[50] = tested on: UACC-257
[51] = tested on: UACC-62
[52] = tested on: UO-31
[53] = tested on: MOLT-4
[54] = tested on: Malme-3M
[55] = tested on: RXF 393
[56] = tested on: SK-MEL-28
[57] = tested on: SW-620
[58] = tested on: U-251
[59] = tested on: MDA-MB-435

CC(=O)OC1C2CCC3C(C)(O)C4CC(O)C(C)(C)C4(O)C(O)CC13CC2(C)O (stereo unspecified)
GI50 [1]: > 100 µM (inactive) | GI50 [2]: > 100 µM (inactive) | GI50 [3]: > 100 µM (inactive) | GI50 [4]: > 100 µM (inactive) | GI50 [5]: > 100 µM (inactive) | GI50 [6]: > 100 µM (inactive) | GI50 [7]: > 100 µM (inactive) | GI50 [8]: > 100 µM (inactive) | GI50 [9]: > 100 µM (inactive) | GI50 [10]: > 100 µM (inactive) | GI50 [11]: > 100 µM (inactive) | GI50 [12]: > 100 µM (inactive) | GI50 [13]: > 100 µM | GI50 [14]: > 100 µM (inactive) | GI50 [15]: > 100 µM (inactive) | GI50 [16]: > 100 µM (inactive) | GI50 [17]: > 100 µM (inactive) | GI50 [18]: > 100 µM (inactive) | GI50 [19]: > 100 µM (inactive) | GI50 [20]: > 100 µM (inactive) | GI50 [21]: > 100 µM (inactive) | GI50 [22]: > 100 µM (inactive) | GI50 [23]: > 100 µM (inactive) | GI50 [24]: > 100 µM (inactive) | GI50 [25]: > 100 µM (inactive) | GI50 [26]: > 100 µM (inactive) | GI50 [27]: > 100 µM (inactive) | GI50 [28]: > 100 µM (inactive) | GI50 [29]: > 10 µM (inactive) | GI50 [30]: > 100 µM (inactive) | GI50 [31]: > 100 µM (inactive) | GI50 [32]: > 100 µM (inactive) | GI50 [33]: > 100 µM (inactive) | GI50 [34]: > 100 µM (inactive) | GI50 [35]: > 100 µM (inactive) | GI50 [36]: > 100 µM (inactive) | GI50 [37]: > 100 µM (inactive) | GI50 [38]: > 100 µM (inactive) | GI50 [39]: > 100 µM (inactive) | GI50 [40]: > 100 µM (inactive) | GI50 [41]: > 100 µM (inactive) | GI50 [42]: > 100 µM (inactive) | GI50 [43]: > 100 µM (inactive) | GI50 [44]: > 100 µM (inactive) | GI50 [45]: > 100 µM (inactive) | GI50 [46]: > 100 µM (inactive) | GI50 [47]: > 100 µM (inactive) | GI50 [48]: > 100 µM (inactive) | GI50 [49]: > 100 µM (inactive) | GI50 [50]: > 100 µM (inactive) | GI50 [51]: > 100 µM (inactive) | GI50 [52]: > 100 µM (inactive)

O=C(O)C(=Cc1ccnc2ccccc12)C(=O)O
GI50 [1]: > 100 µM (inactive) | GI50 [2]: > 100 µM (inactive) | GI50 [3]: > 100 µM (inactive) | GI50 [4]: > 100 µM (inactive) | GI50 [5]: > 100 µM (inactive) | GI50 [6]: > 100 µM (inactive) | GI50 [7]: > 100 µM (inactive) | GI50 [8]: > 100 µM (inactive) | GI50 [9]: > 100 µM (inactive) | GI50 [10]: > 100 µM (inactive) | GI50 [12]: > 100 µM (inactive) | GI50 [13]: > 100 µM | GI50 [14]: > 100 µM (inactive) | GI50 [15]: > 100 µM (inactive) | GI50 [16]: > 100 µM (inactive) | GI50 [17]: > 100 µM (inactive) | GI50 [18]: > 100 µM (inactive) | GI50 [19]: > 100 µM (inactive) | GI50 [20]: > 100 µM (inactive) | GI50 [21]: > 100 µM (inactive) | GI50 [22]: > 100 µM (inactive) | GI50 [23]: > 100 µM (inactive) | GI50 [24]: > 100 µM (inactive) | GI50 [25]: > 100 µM (inactive) | GI50 [26]: > 100 µM (inactive) | GI50 [53]: > 100 µM (inactive) | GI50 [54]: > 100 µM (inactive) | GI50 [27]: > 100 µM (inactive) | GI50 [28]: > 100 µM (inactive) | GI50 [29]: > 100 µM (inactive) | GI50 [30]: > 100 µM (inactive) | GI50 [31]: > 100 µM (inactive) | GI50 [32]: > 100 µM (inactive) | GI50 [34]: > 100 µM (inactive) | GI50 [35]: > 100 µM (inactive) | GI50 [36]: > 100 µM (inactive) | GI50 [37]: > 100 µM (inactive) | GI50 [55]: > 100 µM (inactive) | GI50 [38]: > 100 µM (inactive) | GI50 [39]: > 100 µM (inactive) | GI50 [40]: > 100 µM (inactive) | GI50 [56]: > 100 µM (inactive) | GI50 [41]: > 100 µM (inactive) | GI50 [42]: > 100 µM (inactive) | GI50 [43]: > 100 µM (inactive) | GI50 [44]: > 100 µM (inactive) | GI50 [45]: > 100 µM (inactive) | GI50 [46]: > 100 µM (inactive) | GI50 [47]: > 100 µM (inactive) | GI50 [57]: > 100 µM (inactive) | GI50 [48]: > 100 µM (inactive) | GI50 [49]: > 100 µM (inactive) | GI50 [58]: > 100 µM (inactive) | GI50 [50]: > 100 µM (inactive) | GI50 [51]: > 100 µM (inactive)

COC(=O)C1=C(O)C(C(=O)OC)[C@]2(O)[C@H](C(=O)OC)[C@H]1C[C@@H](c1ccc(OC)cc1)[C@H]2C(=O)OC (stereo partly specified)
GI50 [1]: 20.2 µM (inactive) | GI50 [2]: 7.74 µM (inactive) | GI50 [3]: 20.5 µM (inactive) | GI50 [4]: 18 µM (inactive) | GI50 [5]: 30.8 µM (inactive) | GI50 [6]: 19.5 µM (inactive) | GI50 [8]: 35.2 µM (inactive) | GI50 [10]: 26.3 µM (inactive) | GI50 [11]: 17.8 µM (inactive) | GI50 [12]: 16.3 µM (inactive) | GI50 [13]: 21.9 µM | GI50 [15]: 29.9 µM (inactive) | GI50 [16]: 59.7 µM (inactive) | GI50 [17]: 29.8 µM (inactive) | GI50 [18]: 19.9 µM (inactive) | GI50 [19]: 34.6 µM (inactive) | GI50 [20]: 15.5 µM (inactive) | GI50 [21]: 19.5 µM (inactive) | GI50 [22]: 24.4 µM (inactive) | GI50 [23]: 23.8 µM (inactive) | GI50 [24]: 20.2 µM (inactive) | GI50 [25]: 30 µM (inactive) | GI50 [59]: 5.97 µM (inactive) | GI50 [26]: 8.71 µM (inactive) | GI50 [53]: 10.2 µM (inactive) | GI50 [54]: 17.7 µM (inactive) | GI50 [27]: 30.3 µM (inactive) | GI50 [28]: 23.6 µM (inactive) | GI50 [29]: 17.7 µM (inactive) | GI50 [30]: 2.36 µM (inactive) | GI50 [31]: 23.8 µM (inactive) | GI50 [33]: 19.8 µM (inactive) | GI50 [34]: 20.7 µM (inactive) | GI50 [35]: 30.7 µM (inactive) | GI50 [37]: 12.4 µM (inactive) | GI50 [55]: 16 µM (inactive) | GI50 [38]: 19.6 µM (inactive) | GI50 [39]: 44.6 µM (inactive) | GI50 [40]: 28.3 µM (inactive) | GI50 [56]: 30.4 µM (inactive) | GI50 [41]: 19.8 µM (inactive) | GI50 [42]: 13.7 µM (inactive) | GI50 [43]: 29 µM (inactive) | GI50 [44]: 21.5 µM (inactive) | GI50 [45]: 29.4 µM (inactive) | GI50 [46]: 27.9 µM (inactive) | GI50 [47]: 16.1 µM (inactive) | GI50 [57]: 17.7 µM (inactive) | GI50 [48]: 22.3 µM (inactive) | GI50 [49]: 34.3 µM (inactive) | GI50 [58]: 24.5 µM (inactive) | GI50 [50]: 24.7 µM (inactive) | GI50 [51]: 12.1 µM (inactive) | GI50 [52]: 11.3 µM (inactive)
